Data on three compounds can be found in paper PMC5355877, “The development of novel LTA4H modulators to selectively target LTB4 generation” (Scientific Reports, 2017).

SMILES strings stand for the structures. “And” between values parts separate entries of the source, which are not always exact repeats. Equal values may be shown once. Read-outs that look alike come from different tables or passages of the source.

In data set [1] the target is T1, LTA4H epoxide hydrolase activity (LTB4 generation) (Mus musculus, UniProt P24527).
T1 construct: endogenous in cells; host or cells: murine bone marrow neutrophils
T1 sequence (P24527 1-611): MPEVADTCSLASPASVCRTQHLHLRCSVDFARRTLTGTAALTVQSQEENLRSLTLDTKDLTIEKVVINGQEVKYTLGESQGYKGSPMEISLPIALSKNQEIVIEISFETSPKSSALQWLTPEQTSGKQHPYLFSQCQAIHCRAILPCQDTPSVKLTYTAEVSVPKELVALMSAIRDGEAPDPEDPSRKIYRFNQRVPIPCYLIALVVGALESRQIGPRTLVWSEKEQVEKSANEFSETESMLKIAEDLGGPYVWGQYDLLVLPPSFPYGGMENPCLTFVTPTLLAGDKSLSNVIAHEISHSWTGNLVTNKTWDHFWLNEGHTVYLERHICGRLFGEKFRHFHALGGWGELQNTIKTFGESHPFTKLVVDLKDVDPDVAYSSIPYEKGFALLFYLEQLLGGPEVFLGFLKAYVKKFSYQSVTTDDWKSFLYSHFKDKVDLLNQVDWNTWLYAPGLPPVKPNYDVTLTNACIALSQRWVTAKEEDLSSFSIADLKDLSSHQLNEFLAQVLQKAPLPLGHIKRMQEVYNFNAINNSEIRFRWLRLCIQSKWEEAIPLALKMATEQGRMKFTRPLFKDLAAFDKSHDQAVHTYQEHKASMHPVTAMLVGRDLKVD
As to the kind of experiment: LTA4H epoxide hydrolase activity: LTB4 generation by A23187-treated murine bone marrow neutrophils (EIA). The format is cell-based. The following applies: for IC50: LTB4 generation, murine neutrophils, read-out: Epoxide Hydrolase IC50 ± SEM. Here is the method:
To isolate murine bone marrow neutrophils, the femur and the tibia from both hind legs were removed and freed of soft tissue attachments, and the extreme distal tip of each extremity cut off. HBSS containing 15 mM EDTA and 30 mM HEPES was forced through the bone with a syringe. After dispersing cell clumps and passage through a […] sieve (BD labware, New Jersey), red blood cells were lysed by resuspending pellets in ACK buffer (for 3 minutes at room temperature) before centrifugation (800 × g, 5 min) and washing with HBSS. The cell suspension was centrifuged (800 × g, 5 min, 4 °C) and resuspended in RPMI.
(§1) 1% DMSO was used as a control. Cells were incubated for 20 minutes at 37 °C, and the reaction was terminated by centrifugation (600 × g, 5 min, 4 °C). Supernatants were removed and stored at −80 °C for subsequent LTB4 analysis. The concentration of LTB4 generated in the epoxide hydrolase activity assay was assayed using an EIA, according to manufacturer’s directions (R&D systems, Minneapolis, MN). Test compounds were assayed in a blinded manner by an investigator during determination of effect on LTA4H epoxide hydrolase activity.

Data set [2] has as its target T2, recombinant human LTA4H (aminopeptidase, PGP substrate) (Homo sapiens, UniProt P09960).
T2 construct: purchased Cayman Chemicals
T2 sequence (P09960 1-611): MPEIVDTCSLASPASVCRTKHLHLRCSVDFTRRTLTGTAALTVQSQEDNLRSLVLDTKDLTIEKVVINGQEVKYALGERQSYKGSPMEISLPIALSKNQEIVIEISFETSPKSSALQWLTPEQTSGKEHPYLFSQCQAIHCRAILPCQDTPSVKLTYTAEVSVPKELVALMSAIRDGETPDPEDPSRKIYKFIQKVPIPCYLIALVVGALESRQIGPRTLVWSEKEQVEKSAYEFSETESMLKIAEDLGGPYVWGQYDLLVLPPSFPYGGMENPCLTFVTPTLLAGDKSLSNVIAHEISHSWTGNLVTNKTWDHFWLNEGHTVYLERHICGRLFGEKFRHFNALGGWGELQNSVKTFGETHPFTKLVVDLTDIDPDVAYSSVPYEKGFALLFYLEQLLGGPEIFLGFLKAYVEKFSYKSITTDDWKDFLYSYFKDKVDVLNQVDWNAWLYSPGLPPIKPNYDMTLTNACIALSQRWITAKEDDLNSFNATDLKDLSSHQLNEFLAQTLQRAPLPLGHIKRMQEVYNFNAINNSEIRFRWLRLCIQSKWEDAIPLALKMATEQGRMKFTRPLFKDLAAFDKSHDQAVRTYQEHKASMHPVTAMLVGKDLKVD
As to the kind of experiment: LTA4H aminopeptidase activity: PGP degradation by recombinant human LTA4H. The format is biochemical. Here is the method:
For peptide quantification in serum, PGP and AcPGP were measured using a MDS Sciex API-4000 spectrometer (Applied Biosystems, Foster City, CA) equipped with a Shimadzu HPLC (Columbia, MD). For peptide quantification from degradation experiments, PGP and AcPGP were measured using a Thermo Accela Pump and Autosampler coupled to a Thermo TSQ Quantum Access. […] Peak area was measured, and PGP/AcPGP peptide concentrations were calculated using a relative standard curve method as previously described.
Mouse serum (diluted 1/10 in PBS) or recombinant human LTA4H (0.1 μg/ml; Cayman Chemicals, Michigan, USA) were incubated with 0.4 mM PGP at 37 °C in 5% CO2 for varying periods of time. Concentrations of PGP remaining were subsequently quantified by ESI-LC/MS/MS (as discussed above) by comparison with PGP standards. The percentage of peptide degraded was determined relative to control samples of 0.4 mM PGP alone. PGP degradation was also assessed by measurement of free proline released and its ensuing reaction with Ninhydrin (as discussed below). Test compounds were assayed in a blinded manner by an investigator during determination of the effect on LTA4H aminopeptidase activity.
To assess free proline liberated, aliquots from PGP degradation experiments were diluted 1 in 10 in PBS (to a final volume of 250 μl). Glacial acetic acid (250 μl) was then added, followed by 250 μl of ninhydrin solution (25 mg/ml in acetic acid/6 M phosphoric acid; heated at 70 °C to dissolve). The reaction mixture was heated at 100 °C for 60 minutes, allowed to cool to room temperature and the proline containing fraction extracted with 500 μl of toluene and optical density measured at 520 nm.

Data set [3] deals with LTB4 production by neutrophils. The arrangement: method as in PMID 24591641. The following applies: cited from earlier work.
A further data set has as its system LTA4H (PGP degradation). Details: method as in PMID 24591641. As to conditions: concentration of 100 μM; 5 μg/ml LTA4H; cited from earlier work.
The target of data set [4] is T3, LTA4H epoxide hydrolase activity (LTB4 generation) (Homo sapiens, UniProt P09960).
T3 construct: endogenous in cells; host or cells: human peripheral blood neutrophils from healthy volunteers
T3 sequence (P09960 1-611): T2 sequence (P09960 1-611)
Nature of the data set: LTB4 generation by human blood-derived neutrophils. In kind it is cell-based. As to conditions: preliminary data, blood-derived neutrophils from two distinct donors. Here is the method: To isolate human neutrophils, peripheral blood was taken from healthy volunteers following informed consent and according to an approved protocol. Neutrophils were subsequently isolated using the MACSxpress™ Neutrophil Isolation Kit (Miltenyi Biotec, UK).
as §1, with “1 × 10^5 murine bone marrow-derived neutrophils or human blood-derived neutrophils (compound 9 only) in 100 μl of RPMI were treated with A23187 at a final concentration of 20 μg/ml. 1%” for “1%”

The next data set in a line: logD pH7.4. In kind it is physicochemical. The following applies: pH 7.4; read-out: logDpH7.4. The text has this:
(§2) ARM1 (4-(4-benzylphenyl)-1,3-thiazole-2-amine), compound 11 (7-hydroxy-3-(4-hydroxyphenyl)-4H-chromen-4-one) and compound 13 (7-hydroxy-3-phenyl-4H-chromen-4-one) were all purchased from VitasMLab (Kowloon, Hong Kong). […] All other compounds were custom synthesized by Peakdale Molecular as described in Supplementary Information. ADMET (absorption, distribution, metabolism, and excretion – toxicity) studies were also outsourced to Peakdale Molecular.

Data set [5] can be described thus: Mouse plasma protein binding. In kind it is in vitro ADME.
Excerpt: as §2

A short description of data set [6]: Human plasma protein binding. In kind it is in vitro ADME.
Excerpt: as §2

Data set [7] is described as follows: Mouse liver microsome stability. In kind it is in vitro ADME. The following applies: liver microsomes.
Excerpt: as §2

Data set [8] is described as follows: Human liver microsome stability. The format is in vitro ADME. As to conditions: liver microsomes.
Excerpt: as §2

On the set-up of data set [9]: method as in PMID 12540402. The following applies: metabolic stability reported; cited from earlier work.

By IC50 is commonly meant the concentration that inhibits the measured activity by half. For `Nc1nc(-c2ccc(Cc3ccccc3)cc2)cs1` [ARM1, 4-(4-benzylphenyl)-1,3-thiazole-2-amine, reference compound], the IC50 was 600 ± 66.2 nM in [1] (Table 1); 9110 nM in data set [2] (PGP degradation, recombinant LTA4H, Table 1, read-out: Aminopeptidase IC50 ± SEM); roughly 9100 nM in data set [2] (read-out: IC50 for inhibiting PGP degradation); 500 nM and ~500 nM in data set [3]. Further, the “inhibition of PGP degradation at 100 μM” value in the data set on LTA4H (PGP degradation) is given as “no inhibition”.

In general, fraction unbound refers to the share of the substance not bound to proteins or other matrix. Low values mean extensive binding, high ones weak binding. For orientation: microsomal CLint means the capacity of the preparation to metabolise the compound, expressed as a volume cleared per time. A higher microsomal CLint goes with faster metabolism. As to `COc1cc(O)cc(CCc2ccccc2O)c1` [Compound 9], the IC50 in data set [1] (Table 2) is 500 ± 40 nM; in [2] (PGP degradation, Table 2, read-out: Aminopeptidase IC50 ± SEM), greater than 100000 nM; in data set [4] it was 2400 nM. Also, the “augmentation of LTB4 inhibitory capacity” value in data set [1] (relocation of hydroxyl to R3-position, relative to compound 6) came out at 10 fold. Further, in data set [2] (concentration of 100 μM), the “inhibition of PGP degradation at 100 μM” value is “no inhibition”. The logD in the data set “logD pH7.4” was found to be 2.25 ± 0.1. For the same compound, the figures for the free fraction (fraction unbound) in data set [5] and in data set [6] were 0.0213 and 0.0225, respectively. The intrinsic metabolic clearance (microsomal CLint) in data set [7] was determined as 466 ± 100 µL/min/mg; in data set [8] it was 59.5 µL/min/mg. Also, the half-life in data set [7] (read-out: Mouse liver microsomes t1/2) was 1.5 min; in [8] (read-out: Human liver microsomes t1/2) it was 11.7 min.

For `O=c1c(-c2ccc(O)cc2)coc2cc(O)ccc12` [Compound 11, 7-hydroxy-3-(4-hydroxyphenyl)-4H-chromen-4-one], the IC50 in data set [1] (Table 3) was 15000 ± 2300 nM; in data set [2] (PGP degradation, Table 3, read-out: Aminopeptidase IC50 ± SEM) it was greater than 100000 nM. Further, the t1/2 in [9] was 465 ± 21.6 min.
